This is an account of results in patent publication US20190192060A1, “DEVICE AND METHOD FOR BLOOD VOLUME MEASUREMENT” (Oregon Health & Science University, priority 2017, published 2019).

For data set [1] the following is noted: cited from earlier work.
For data set [2] the following is noted: cited from earlier work. This is another data set of the same source.
A short description of data set [3]: in vivo indicator dilution and elimination measured with intravenous optical fiber probe. The conditions noted are these: healthy adult rhesus macaques, intravenous injection, reflectance in cephalic vein.

With `CC1(C)C(/C=C/C=C/C=C/C=C2\N(CCCCS(=O)(=O)O)c3ccc4ccccc4c3C2(C)C)=[N+](CCCCS(=O)(=O)[O-])c2ccc3ccccc3c21` [ICG, indocyanine green], the placental transfer entry in data set [1] (in vivo) is on record as “does not cross the placenta”. The “harm to the fetus” value in data set [1] (used in many pregnant women) is “without any reports of harm to the fetus”. Further, in data set [2] (after mixing in the circulating compartment), the “time to elimination by the liver” value was no more than 15 min. Further, in data set [2] (in vivo), the route of excretion entry is listed as “excreted unchanged in the bile”. For the same compound, the “time until blood volume indicator values returned to baseline (non-detectable)” value in data set [3] is reported as “approximately 10 minutes”.
